≈ marks a conversion by molar mass, not a printed value. Calls of active or inactive are those of the source.

For four compounds, MIC and Activity results are on record in ChEMBL document CHEMBL6114980, “Single or double lipid-modified ultra-short antimicrobial peptides for treating infections caused by resistant bacteria” (Eur J Med Chem, 2025).

For experiment [1], the system named is Acinetobacter baumannii. As to the kind of experiment: Antibacterial activity against Acinetobacter baumannii ATCC 19606 assessed as reduction in bacterial growth incubated for 18 to 24 hrs by broth microdilution method. The following applies: time 18-24 hrs. The experiment is classed as functional.
In the next experiment the test system is Klebsiella pneumoniae. Nature of the experiment: Antibacterial activity against Klebsiella pneumoniae ATCC 700603 assessed as reduction in bacterial growth incubated for 18 to 24 hrs by broth microdilution method. The experiment is classed as functional. The following applies: time 18-24 hrs. In general terms: In broth dilution the organism is exposed to a series of concentrations in liquid medium.

Experiment [2] has as its system Escherichia coli. Nature of the experiment: Antibacterial activity against Escherichia coli ATCC 25922 assessed as reduction in bacterial growth incubated for 18 to 24 hrs by broth microdilution method. The experiment is classed as functional. The following applies: time 18-24 hrs.
The test system of experiment [3] is Pseudomonas aeruginosa. As to the kind of experiment: Antibacterial activity against Pseudomonas aeruginosa ATCC 27853 assessed as reduction in bacterial growth incubated for 18 to 24 hrs by broth microdilution method. The experiment is classed as functional. The following applies: time 18-24 hrs.
The test system of experiment [4] is Staphylococcus aureus. As to the kind of experiment: Antibacterial activity against methicillin-resistant Staphylococcus aureus ATCC 33591 assessed as reduction in bacterial growth incubated for 18 to 24 hrs by broth microdilution method. The experiment is classed as functional. The following applies: time 18-24 hrs.
Experiment [5] relates to Staphylococcus aureus. As to the kind of experiment: Antibacterial activity against methicillin-resistant Staphylococcus aureus 75 assessed as reduction in bacterial growth incubated for 18 to 24 hrs by broth microdilution method. The experiment is classed as functional. The settings on record: time 18-24 hrs.
The subject of experiment [6] is Staphylococcus aureus. Nature of the experiment: Antibacterial activity against Staphylococcus aureus 113 assessed as reduction in bacterial growth incubated for 18 to 24 hrs by broth microdilution method. The experiment is classed as functional. The following applies: time 18-24 hrs.
For experiment [7], the system named is Staphylococcus aureus. As to the kind of experiment: Antibacterial activity against Staphylococcus aureus 125 assessed as reduction in bacterial growth incubated for 18 to 24 hrs by broth microdilution method. The experiment is classed as functional. The following applies: time 18-24 hrs.
Experiment [8] relates to Staphylococcus aureus. Nature of the experiment: Antibacterial activity against Staphylococcus aureus 794 assessed as reduction in bacterial growth incubated for 18 to 24 hrs by broth microdilution method. The experiment is classed as functional. The settings on record: time 18-24 hrs.
The subject of the next experiment is Enterococcus faecalis. As to the kind of experiment: Antibacterial activity against Enterococcus faecalis ATCC 29212 assessed as reduction in bacterial growth incubated for 18 to 24 hrs by broth microdilution method. The experiment is classed as functional. The settings on record: time 18-24 hrs.
Experiment [9] concerns Staphylococcus epidermidis. Nature of the experiment: Antibacterial activity against Staphylococcus epidermidis ATCC 12228 assessed as reduction in bacterial growth incubated for 18 to 24 hrs by broth microdilution method. The experiment is classed as functional. The settings on record: time 18-24 hrs.
The test system of the next experiment is Bacillus subtilis. As to the kind of experiment: Antibacterial activity against Bacillus subtilis ATCC 23857 assessed as reduction in bacterial growth incubated for 18 to 24 hrs by broth microdilution method. The experiment is classed as functional. The following applies: time 18-24 hrs.
The subject of experiment [10] is Staphylococcus aureus. Nature of the experiment: Antibacterial activity against Staphylococcus aureus ATCC 25923 assessed as reduction in bacterial growth incubated for 18 to 24 hrs by broth microdilution method. The experiment is classed as functional. The following applies: time 18-24 hrs.
In experiment [11] the test system is Acinetobacter baumannii. Nature of the experiment: Antibacterial activity against Acinetobacter baumannii 5444 assessed as reduction in bacterial growth incubated for 18 to 24 hrs by broth microdilution method. The experiment is classed as functional. The following applies: time 18-24 hrs.
Experiment [12] deals with Acinetobacter baumannii. Nature of the experiment: Antibacterial activity against Acinetobacter baumannii 92359 assessed as reduction in bacterial growth incubated for 18 to 24 hrs by broth microdilution method. The experiment is classed as functional. The settings on record: time 18-24 hrs.
Experiment [13] relates to Escherichia coli. As to the kind of experiment: Antibacterial activity against Escherichia coli 850 assessed as reduction in bacterial growth incubated for 18 to 24 hrs by broth microdilution method. The experiment is classed as functional. The following applies: time 18-24 hrs.
For experiment [14], the system named is Escherichia coli. Nature of the experiment: Antibacterial activity against Escherichia coli 780 assessed as reduction in bacterial growth incubated for 18 to 24 hrs by broth microdilution method. The experiment is classed as functional. The settings on record: time 18-24 hrs.
For experiment [15], the system named is Pseudomonas aeruginosa. Nature of the experiment: Antibacterial activity against Pseudomonas aeruginosa 124 assessed as reduction in bacterial growth incubated for 18 to 24 hrs by broth microdilution method. The following applies: time 18-24 hrs. The experiment is classed as functional.
In experiment [16] the test system is Pseudomonas aeruginosa. As to the kind of experiment: Antibacterial activity against Pseudomonas aeruginosa 6434N assessed as reduction in bacterial growth incubated for 18 to 24 hrs by broth microdilution method. The settings on record: time 18-24 hrs. The experiment is classed as functional.
The subject of experiment [17] is Staphylococcus aureus. As to the kind of experiment: Bactericidal activity against Staphylococcus aureus 25923 assessed as eradication of bacteria at 2 times MIC measured after 6 hrs by time-kill assay. The experiment is classed as functional, organism-based.
For experiment [18], the system named is Staphylococcus aureus. As to the kind of experiment: Induction of morphological changes in Staphylococcus aureus assessed as cell aggregation adhesion at 2 times MIC measured after 120 mins by SEM analysis. The experiment is classed as functional, organism-based.
For experiment [19], the system named is Staphylococcus aureus. Nature of the experiment: Induction of cell membrane disruption in Staphylococcus aureus assessed as PI uptake at 2 to 4 times MIC measured after 120 mins by PI staining based flow cytometry analysis. The experiment is classed as functional, organism-based. For orientation: A flow cytometer gives signals particle by particle.
In experiment [20] the test system is Staphylococcus aureus. As to the kind of experiment: Antibacterial activity against methicillin resistant Staphylococcus aureus infected in male BALB/c mouse model of skin wound infection assessed as reduction in wound area at 2 mg/kg, ip measured after 10 days post infection relative to control. The experiment is classed as functional. Also noted: scale not given: the % may be the effect or the level left. The settings on record: time 10 day.

In experiment [21] the test system is Staphylococcus aureus. As to the kind of experiment: Antibacterial activity against methicillin resistant Staphylococcus aureus infected in male BALB/c mouse model of skin wound infection assessed as appearance of intact structure of stratum corneum at 2 mg/kg, ip measured after 10 days post infection. The settings on record: time 10.0 day. The experiment is classed as functional, organism-based.

In experiment [22] the test system is Staphylococcus aureus. As to the kind of experiment: Antibacterial activity against methicillin resistant Staphylococcus aureus infected in male BALB/c mouse model of skin wound infection assessed as healthy development of sebaceous glands at 2 mg/kg, ip measured after 10 days post infection. The settings on record: time 10.0 day. The experiment is classed as functional, organism-based.

Experiment [23] deals with Staphylococcus aureus. As to the kind of experiment: Antibacterial activity against methicillin resistant Staphylococcus aureus infected in male BALB/c mouse model of skin wound infection assessed as healthy development of hair follicles at 2 mg/kg, ip measured after 10 days post infection. The experiment is classed as functional, organism-based. The settings on record: time 10.0 day.

The MIC is the smallest concentration in the dilution series that meets the test's criterion for growth inhibition. As for `CC(=O)OCC1=C(C(=O)O)N2C(=O)[C@@H](NC(=O)Cc3cccs3)[C@H]2SC1` [CEPHALOTHIN], the MIC was 32 µM (≈ 12.7 µg/mL) in the experiment with Acinetobacter baumannii [1]; 16 µM (≈ 6.34 µg/mL) with Klebsiella pneumoniae; 1 µM (≈ 0.396 µg/mL) in the experiment with Escherichia coli [2]; 16 µM (≈ 6.34 µg/mL) in the experiment on Pseudomonas aeruginosa [3]; 128 µM (≈ 50.7 µg/mL) with Staphylococcus aureus [4]; 128 µM (≈ 50.7 µg/mL) with Staphylococcus aureus [5]. Also, the MIC with Staphylococcus aureus [6] came to 8 µM (≈ 3.17 µg/mL); in the experiment on Staphylococcus aureus [7], 1 µM (≈ 0.396 µg/mL); in the experiment on Staphylococcus aureus [8] it was 128 µM (≈ 50.7 µg/mL); in the experiment with Enterococcus faecalis, 4 µM (≈ 1.59 µg/mL); in experiment [9], 1 µM (≈ 0.396 µg/mL); with Bacillus subtilis it was 1 µM (≈ 0.396 µg/mL). Besides, the MIC with Staphylococcus aureus [10] came to 1 µM (≈ 0.396 µg/mL); in the experiment with Acinetobacter baumannii [11], 128 µM (≈ 50.7 µg/mL); in the experiment with Acinetobacter baumannii [12], 128 µM (≈ 50.7 µg/mL); with Escherichia coli [13], 8 µM (≈ 3.17 µg/mL); in the experiment with Escherichia coli [14], 1 µM (≈ 0.396 µg/mL); in the experiment on Pseudomonas aeruginosa [15], 128 µM (≈ 50.7 µg/mL). The MIC in the experiment on Pseudomonas aeruginosa [16] is 16 µM (≈ 6.34 µg/mL).
Take `COc1cccc(OC)c1C(=O)N[C@@H]1C(=O)N2[C@@H]1SC(C)(C)[C@@H]2C(=O)O` [METHICILLIN]: the MIC with Acinetobacter baumannii [1], in the experiment with Klebsiella pneumoniae, with Escherichia coli [2], in the experiment with Pseudomonas aeruginosa [3], in the experiment on Staphylococcus aureus [4] and in the experiment with Staphylococcus aureus [5] was 128 µM (≈ 48.7 µg/mL) throughout. Besides, the MIC with Staphylococcus aureus [6] was 8 µM (≈ 3.04 µg/mL); with Staphylococcus aureus [7] it was 2 µM (≈ 0.761 µg/mL); with Staphylococcus aureus [8], 128 µM (≈ 48.7 µg/mL); in the experiment with Enterococcus faecalis, 128 µM (≈ 48.7 µg/mL); in experiment [9], 4 µM (≈ 1.52 µg/mL); in the experiment with Bacillus subtilis it was 2 µM (≈ 0.761 µg/mL). Further, the MIC in the experiment on Staphylococcus aureus [10] was 1 µM (≈ 0.38 µg/mL); with Acinetobacter baumannii [11], 128 µM (≈ 48.7 µg/mL); in the experiment on Acinetobacter baumannii [12], 128 µM (≈ 48.7 µg/mL); with Escherichia coli [13], 128 µM (≈ 48.7 µg/mL); with Escherichia coli [14], 128 µM (≈ 48.7 µg/mL); in the experiment on Pseudomonas aeruginosa [15] it was 128 µM (≈ 48.7 µg/mL). The MIC in the experiment on Pseudomonas aeruginosa [16] was determined as 128 µM (≈ 48.7 µg/mL).
For `CN[C@@H]1[C@H](O[C@H]2[C@H](O[C@H]3[C@H](O)[C@@H](O)[C@H](N=C(N)N)[C@@H](O)[C@@H]3N=C(N)N)O[C@@H](C)[C@]2(O)C=O)O[C@@H](CO)[C@H](O)[C@H]1O` [STREPTOMYCIN], the minimal inhibitory concentration (MIC) in the experiment on Acinetobacter baumannii [1] was determined as 64 µM (≈ 37.2 µg/mL); with Klebsiella pneumoniae it was 1 µM (≈ 0.582 µg/mL); in the experiment with Escherichia coli [2], 4 µM (≈ 2.33 µg/mL); with Pseudomonas aeruginosa [3], 2 µM (≈ 1.16 µg/mL); with Staphylococcus aureus [4], 64 µM (≈ 37.2 µg/mL); in the experiment on Staphylococcus aureus [5], 64 µM (≈ 37.2 µg/mL). Moreover, the MIC with Staphylococcus aureus [6] worked out at 128 µM (≈ 74.4 µg/mL); in the experiment on Staphylococcus aureus [7], 128 µM (≈ 74.4 µg/mL); in the experiment on Staphylococcus aureus [8] it was 128 µM (≈ 74.4 µg/mL); in the experiment with Enterococcus faecalis, 16 µM (≈ 9.31 µg/mL); in experiment [9], 1 µM (≈ 0.582 µg/mL); with Bacillus subtilis, 1 µM (≈ 0.582 µg/mL). In addition, the minimum inhibitory concentration (MIC) with Staphylococcus aureus [10] was found to be 1 µM (≈ 0.582 µg/mL); in the experiment on Acinetobacter baumannii [11], 128 µM (≈ 74.4 µg/mL); in the experiment on Acinetobacter baumannii [12], 128 µM (≈ 74.4 µg/mL); in the experiment on Escherichia coli [13], 32 µM (≈ 18.6 µg/mL); in the experiment with Escherichia coli [14] it was 128 µM (≈ 74.4 µg/mL); with Pseudomonas aeruginosa [15] it was 4 µM (≈ 2.33 µg/mL). Further, in the experiment with Pseudomonas aeruginosa [16], the MIC came to 2 µM (≈ 1.16 µg/mL).
Take `CN[C@H](CC(C)C)C(=O)N[C@H]1C(=O)N[C@@H](CC(N)=O)C(=O)N[C@H]2C(=O)N[C@H]3C(=O)N[C@H](C(=O)N[C@H](C(=O)O)c4cc(O)cc(O)c4-c4cc3ccc4O)[C@H](O)c3ccc(c(Cl)c3)Oc3cc2cc(c3O[C@@H]2O[C@H](CO)[C@@H](O)[C@H](O)[C@H]2O[C@H]2C[C@](C)(N)[C@H](O)[C@H](C)O2)Oc2ccc(cc2Cl)[C@H]1O` [VANCOMYCIN]: the result with Staphylococcus aureus [17], with Staphylococcus aureus [18] and with Staphylococcus aureus [19] was inactive. Moreover, the Activity in the experiment with Staphylococcus aureus [20] is on record as under 20%. Further, the result in the experiment with Staphylococcus aureus [21], with Staphylococcus aureus [22] and in the experiment with Staphylococcus aureus [23] was Active.
